Assays:
Type in all cases: cell-based, mouse
[1] = tested on: GABAA receptor β2 subunit mRNA in cultured granule cells; conditions: stimulation at 1.0 and 100 Hz; FIG. 9C; MK801 25 μM, CNQX 10 μM
[2] = tested on: cultured granule cells (release of NRG); assay: Release of NRG into conditioned medium, read by CREB phosphorylation in granule cells; conditions: living cultured granule cells
Method: In the case of FIG. 6D, CREB phosphorylation following stimulation of each conditioned medium was confirmed using cerebellar granule cells. Serum-starved cerebellar granule cells were treated (for 5 to 10 minutes) with conditioned media that had been recovered from the culture products of pontine nuclei neurons and granule cells. The conditioned medium recovered from pontine nuclei neurons was used for stimulation in the cases of a, b, and c. In the cases of d, e, and f, a conditioned medium was prepared from the culture product of granule cells.
Stimulated granule cells were immobilized, followed by staining with a phospho-CREB antibody. The soluble forms that had been released after PMA stimulation (60 minutes) were concentrated and added to cultured granule cells. In panels c and f, the conditioned media should contain endogenous NRG and recombinant NRG. The difference between panels b and e indicates a function of NRG cleaved from recombinant mNRG. FIGS. 6E and 6F show the results of identification of an amino acid sequence that is necessary for proteolysis with the use of an ErbB and CREB phosphorylation assay system. The […] sequence was located above extracellular portions of transmembrane domains that were aligned in parallel. When the sequence was subjected to deletion or mutation of lysine to glycine, proteolysis efficiency was inhibited as shown in FIG. 6F. […]

[3] = tested on: NMDA receptor NR2C subunit mRNA in cultured granule cells

SMILES | β2 transcription [1] | Obvious release of NRG [2] | Increase of NR2C transcription/expression [3] | NR2C transcription / expression of NR2C mRNA ([3]; level increased at 1 and 100 Hz, FIG. 9C, MK801 25 μM)
N#Cc1cc2[nH]c(=O)c(=O)[nH]c2cc1[N+](=O)[O-] [CNQX] | blocked | – | – | –
[Cl-].[K+] [KC1] | – | not observed | – | –
C[C@]12N[C@H](Cc3ccccc31)c1ccccc12 [MK801] | blocked | – | blocked NR2C elevation in a particularly strong manner | strongly blocked

Reference: patent US20090170178A1, “Cell stimulating device and cell stimulating method” (priority 2003, published 2009)
